Paper PMC6854942, “Simultaneous Determination of Three Bioactive Constituents from Bletilla striata by UPLC-MS/MS and Application of the Technique to Pharmacokinetic Analyses” (Evidence-based Complementary and Alternative Medicine : eCAM, 2019)
Where “and” joins values, the source holds several entries; their conditions need not be identical. Equal entries are not always repeated.

Legend:
[1] = Pharmacokinetic study in rats after intravenous administration of B. striata extract (UPLC-MS/MS of plasma); assay type: in vivo, Sprague-Dawley rats; conditions: intravenous administration of B. striata extract 1.64 g/kg, rat plasma, n = 6; for MRT last / MRT inf: Sprague-Dawley; for MRT last: read-out: MRT0–t; for MRT inf: read-out: MRT0–∞
Method: (§1) An ACQUITY™ UPLC system (Waters Corp., Milford, MA, USA) with a conditioned autosampler and the ACQUITY™ UPLC BEH C18 analytical column (50 mm × 2.1 mm, internal diameter, 1.7 μm; Waters Corp., Milford, MA, USA) were used, to which a 6 mm precolumn filter unit was added. Analysis was carried out with an elution gradient of (A) acetonitrile and (B) water (both containing 0.1% formic acid) at a flow rate of 0.35 mL/min as follows: 0–0.5 min (10% A), 0.5–1.0 min (10–30% A), 1.0–2.0 min (30–35% A), 2.0–3.0 min (35–38% A), 3.0–4.0 min (38–90% A), and 4.0–5.0 min (90–10% A). The column and autosampler were maintained at 45°C and 15°C, respectively. The injection volume was 2 μL.
(§2) Mass spectrometric detection was performed using a Waters ACQUITY™ TQD triple quadrupole tandem mass spectrometer (Waters Corp., Manchester, UK) with an ESI interface in the positive ionization mode. The MS conditions were as follows: capillary voltage, 3.0 kV; desolvation gas flow, 650 L/h of nitrogen; and cone gas flow, 50 L/h of nitrogen. The collision gas (Ar) flow for MS/MS was maintained at 0.16 mL/min for collision-induced dissociation (CID). The source and desolvation gas temperatures were 120°C and 350°C, respectively. The multiple reaction monitoring (MRM) mode was used for quantification. All data were acquired using Masslynx™ V 4.1 Software and processed using Quanlyna™ V4.1 (Waters Corp., Millford, MA, USA).
(§3) Ten microliters of the IS solution (puerarin, 10 μg/mL in methanol) and 50 μL of 1% formic acid were added to 100 μL of rat plasma. Proteins were precipitated by addition of 400 μL of methanol, vortexing for 1 min, sonication for 5 min, followed by centrifugation at 13225 ×g for 10 min at 4°C, collecting the supernatant in a centrifuge tube, and drying at 37°C N2. Subsequently, 300 μL of the initial mobile phase was dissolved, sonicated for 5 min, and centrifuged at 5°C and 13225 ×g for 5 min, and the supernatant was used for analysis by UPLC-MS/MS.
(§4) The twelve Sprague-Dawley rats were housed under a controlled temperature regimen (22 ± 1°C) and relative humidity of 50–70%. The animals were maintained on a 12 h light/12 h dark cycle and had free access to food and water. They were fasted for 12 h before each experiment but allowed to drink freely during this time. Before the experiment, the B. striata extracts' intravenous and oral dosing solutions were prepared in physiological saline at concentrations of 1.03 g/mL and 2.78 g/mL, respectively. The 12 rats were randomly divided into two groups with 6 rats in each group. Group 1 underwent oral administration (22.2 g/kg), and group 2 underwent intravenous administration (1.64 g/kg). Blood samples (0.3 mL) were collected from the external right jugular veins of the rats into heparinized tubes at the designated time points (0.033, 0.083, 0.167, 0.33, 0.5, 1, 1.5, 2, 10, 24, 36, and 48 h for group 1 and 0.033, 0.083, 0.167, 0.25, 0.33, 0.5, 0.75, 1, 1.6, and 2 h for group 2). The blood samples were immediately centrifuged at 3000 ×g for 5 min. The plasma was removed and frozen at −20°C until further analysis.
(§5) Data are represented as mean± standard deviation. To determine the pharmacokinetic parameters, the concentration-time data were analyzed by DAS 2.0 software (Mathematical Pharmacology Professional Committee of China, Shanghai, China). Statistical analysis was performed using the statistical software package Statistical Product and Service Solutions (SPSS 11.5, USA). The absolute bioavailability was calculated using the following equation: F (%) = [AUC0 − t (oral) × dose (i.v.)]/[AUC0 − t (i.v.) × dose (oral)]) × 100.

[2] = Pharmacokinetic study in rats after oral administration of B. striata extract (UPLC-MS/MS of plasma); assay type: in vivo, Sprague-Dawley rats; conditions: for bioavailability: rats, AUC0−t oral (22.2 g/kg extract) vs i.v. (1.64 g/kg extract), dose-corrected, read-out: Bioavailability (absolute); for MRT last: read-out: MRT0–t; for MRT inf: read-out: MRT0–∞
Method: as §1, §2, §3, §4, §5

[3] = Stability of each compound in rat plasma (QC samples); assay type: in vitro ADME; conditions: n = 5
Method: The stability of each compound in rat plasma was evaluated using mixtures containing low, medium, or high concentrations of the QC sample (n = 5 for each concentration level). The stability of each compound was tested under three conditions: room temperature for 6 h, three freeze (−20°C)-thaw (room temperature) cycles, and storage at 4°C for 12 h.

[4] = Sprague-Dawley, oral administration of B. striata extract 22.2 g/kg, rat plasma, n = 6
[5] = oral administration of B. striata extract 22.2 g/kg, rat plasma, n = 6
[6] = 3 freeze-thaw cycles (−20°C / room temperature), low QC (spiked 0.029 / 0.022 / 0.015 μg/mL)
[7] = 3 freeze-thaw cycles, high QC (spiked 36.78 / 13.75 / 23.78 μg/mL)
[8] = 3 freeze-thaw cycles, medium QC (spiked 4.09 / 2.75 / 2.64 μg/mL)
[9] = 6 h, room temperature, high QC (spiked 36.78 / 13.75 / 23.78 μg/mL)
[10] = 6 h, room temperature, low QC (spiked 0.029 / 0.022 / 0.015 μg/mL)
[11] = 6 h, room temperature, medium QC (spiked 4.09 / 2.75 / 2.64 μg/mL)
[12] = 12 h, 4°C, high QC (spiked 36.78 / 13.75 / 23.78 μg/mL)
[13] = 12 h, 4°C, low QC (spiked 0.029 / 0.022 / 0.015 μg/mL)
[14] = 12 h, 4°C, medium QC (spiked 4.09 / 2.75 / 2.64 μg/mL)

Structure (SMILES) | MRT last [1] | MRT inf [1] | AUC0–t [1] | AUC0–∞ [1] | bioavailability ([2]; Sprague-Dawley, rat, plasma) | Cmax [2, 4] | MRT last [2, 4] | MRT inf [2, 4] | AUC0–t [2, 5] | AUC0–∞ [2, 5] | Accuracy [3, 6] | Calculated concentration [3, 6] | Calculated concentration [3, 7] | Calculated concentration [3, 8] | Calculated concentration [3, 9] | Accuracy [3, 10] | Calculated concentration [3, 10] | Calculated concentration [3, 11] | Accuracy [3, 12] | Calculated concentration [3, 12] | further results
CC(C)C[C@@](O)(CC(=O)OCc1ccc(O[C@@H]2O[C@H](CO)[C@@H](O)[C@H](O)[C@H]2O)cc1)C(=O)OCc1ccc(O[C@@H]2O[C@H](CO)[C@@H](O)[C@H](O)[C@H]2O)cc1 [Militarine, militarine] | 0.36 ± 0.06 h | 0.39 ± 0.07 h | 36.71 ± 5.66 h∗μg/mL | 37.22 ± 5.99 h∗μg/mL | 0.6% | 3300 ± 3600 ng/mL | 5.62 ± 2.45 h | 9.31 ± 2.57 h | 3.10 ± 1.16 h∗μg/mL | 4.26 ± 1.93 h∗μg/mL | 100.7% | 0.015 ± 0.001 µg/mL | 21.8 ± 0.94 µg/mL | 2.62 ± 0.09 µg/mL | 21.3 ± 0.94 µg/mL | 106.7% | 0.016 ± 0.001 µg/mL | 2.62 ± 0.09 µg/mL | 92.3% | 21.95 ± 1.1 µg/mL | T max [2, 5]: 0.16 ± 0.11 h; T max ([2]; oral administration of B. striata extract 22.2 g/kg, rat plasma, n = 6, listed as militarine): 1.44 h; Accuracy [3, 7]: 91.7%; Accuracy [3, 8]: 99.2%; Accuracy [3, 9]: 89.6%; Accuracy [3, 11]: 99.2%; Accuracy [3, 13]: 100.1%; Calculated concentration [3, 13]: 0.015 ± 0.001 µg/mL; Accuracy [3, 14]: 93.2%; Calculated concentration [3, 14]: 2.46 ± 0.28 µg/mL
CC(C)C[C@@](O)(CC(=O)O)C(=O)O [α-Isobutylmalic acid] | 0.45 ± 0.08 h | 0.51 ± 0.1 h | 38.7 ± 4.72 h∗μg/mL | 39.62 ± 4.26 h∗μg/mL | 87.5% and 87.4% | 23200 ± 5420 ng/mL | 15.6 ± 3.63 h | 19.7 ± 6.25 h | 458.12 ± 150.74 h∗μg/mL | 498.36 ± 173.09 h∗μg/mL | 93.1% | 0.027 ± 0.001 µg/mL | 34.17 ± 1.28 µg/mL | 3.83 ± 0.08 µg/mL | 34.95 ± 1.89 µg/mL | 103.4% | 0.03 ± 0.001 µg/mL | 3.77 ± 0.09 µg/mL | 94.4% | 34.71 ± 1.95 µg/mL | Tmax ([2]; Sprague-Dawley, rat, plasma, po, 22.2 g/kg, oral administration of B. striata extract 22.2 g/kg, rat plasma, n = 6): 6.44 ± 2.33 h; Accuracy [3, 7]: 92.9%; Accuracy [3, 8]: 93.6%; Accuracy [3, 9]: 95.0%; Accuracy [3, 11]: 92.2%; Accuracy [3, 13]: 96.6%; Calculated concentration [3, 13]: 0.028 ± 0.002 µg/mL; Accuracy [3, 14]: 95.8%; Calculated concentration [3, 14]: 3.92 ± 0.11 µg/mL
CC(C)C[C@@](O)(CC(=O)O)C(=O)OCc1ccc(O[C@@H]2O[C@H](CO)[C@@H](O)[C@H](O)[C@H]2O)cc1 [Gymnoside I, gymnoside I] | 0.68 ± 0.07 h | 0.93 ± 0.18 h | 15.47 ± 1.63 h∗μg/mL | 17.52 ± 2.66 h∗μg/mL | 9.8% | 3060 ± 4820 ng/mL | 12.4 ± 3.73 h | 16 ± 5.34 h | 20.56 ± 12.05 h∗μg/mL | 21.81 ± 12.04 h∗μg/mL | 100.3% | 0.022 ± 0.001 µg/mL | 13.92 ± 0.57 µg/mL | 2.74 ± 0.10 µg/mL | 13.69 ± 0.39 µg/mL | 100.2% | 0.022 ± 0.001 µg/mL | 2.77 ± 0.08 µg/mL | 96.1% | 13.22 ± 0.49 µg/mL | T max [2, 5]: 1.44 ± 2.29 h; T max ([2]; oral administration of B. striata extract 22.2 g/kg, rat plasma, n = 6, listed as gymnoside I): 0.16 h; Accuracy [3, 13]: 95.4%; Calculated concentration [3, 13]: 0.021 ± 0.001 µg/mL; Accuracy [3, 14]: 97.5%; Calculated concentration [3, 14]: 2.68 ± 0.15 µg/mL
